# Reference: BindingDB's records for doi:10.1124/jpet.301.1.37 (National Institutes of Health, 2002)
# “And” between values parts separate entries of the source, which are not always exact repeats. Identical values can stand only once.
# How the values were obtained:
# VIP peptides [1] = biological target: T1, VIP peptides (Homo sapiens, UniProt P01282)
# T1 sequence (P01282 whole entry): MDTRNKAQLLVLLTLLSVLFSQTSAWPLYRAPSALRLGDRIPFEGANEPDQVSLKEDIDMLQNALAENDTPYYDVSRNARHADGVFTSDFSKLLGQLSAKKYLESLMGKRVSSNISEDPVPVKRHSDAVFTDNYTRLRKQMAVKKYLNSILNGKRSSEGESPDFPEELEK
# VIP peptides [2] = biological target: T2, VIP peptides (Cavia porcellus, UniProt P04566)
# T2 sequence (P04566 whole entry): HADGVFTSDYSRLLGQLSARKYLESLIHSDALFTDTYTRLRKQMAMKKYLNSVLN
Compound,Ki (VIP peptides [1]),Ki (VIP peptides [2])
CC[C@H](C)[C@H](NC(=O)[C@H](CO)NC(=O)[C@H](CC(N)=O)NC(=O)[C@H](CC(C)C)NC(=O)[C@H](Cc1ccc(O)cc1)NC(=O)[C@H](CCCCN)NC(=O)[C@H](CCCCN)NC(=O)[C@@H](NC(=O)[C@H](C)NC(=O)[C@H](CCSC)NC(=O)[C@H](CCC(N)=O)NC(=O)[C@H](CCCCN)NC(=O)[C@H](CCCN=C(N)N)NC(=O)[C@H](CC(C)C)NC(=O)[C@H](CCCN=C(N)N)NC(=O)[C@@H](NC(=O)[C@H](Cc1ccc(O)cc1)NC(=O)[C@H](CC(N)=O)NC(=O)[C@H](CC(=O)O)NC(=O)[C@@H](NC(=O)[C@H](Cc1ccccc1)NC(=O)[C@@H](NC(=O)[C@H](C)NC(=O)[C@H](CC(=O)O)NC(=O)[C@H](CO)NC(=O)[C@H](N)Cc1cnc[nH]1)C(C)C)[C@@H](C)O)[C@@H](C)O)C(C)C)C(=O)N[C@@H](CC(C)C)C(=O)N[C@@H](CC(N)=O)C(N)=O [VIP [D-His1]],0.74 nM and 4.1 nM and 3.7 nM,22.4 nM
CC[C@H](C)[C@H](NC(=O)[C@H](CO)NC(=O)[C@H](CC(N)=O)NC(=O)[C@H](CC(C)C)NC(=O)[C@H](Cc1ccc(O)cc1)NC(=O)[C@H](CCCCN)NC(=O)[C@H](CCCCN)NC(=O)[C@@H](NC(=O)[C@H](C)NC(=O)[C@H](CCSC)NC(=O)[C@H](CCC(N)=O)NC(=O)[C@@H](CCCCN)NC(=O)[C@H](CCCN=C(N)N)NC(=O)[C@H](CC(C)C)NC(=O)[C@H](CCCN=C(N)N)NC(=O)[C@@H](NC(=O)[C@H](Cc1ccc(O)cc1)NC(=O)[C@H](CC(N)=O)NC(=O)[C@H](CC(=O)O)NC(=O)[C@@H](NC(=O)[C@H](Cc1ccccc1)NC(=O)[C@@H](NC(=O)[C@H](C)NC(=O)[C@H](CC(=O)O)NC(=O)[C@H](CO)NC(=O)[C@@H](N)Cc1cnc[nH]1)C(C)C)[C@@H](C)O)[C@@H](C)O)C(C)C)C(=O)N[C@@H](CC(C)C)C(=O)N[C@@H](CC(N)=O)C(N)=O [VIP [D-Lys15]],2 nM and 13.8 nM and 10.9 nM,19.9 nM
CC[C@H](C)[C@H](NC(=O)[C@H](CO)NC(=O)[C@H](CC(N)=O)NC(=O)[C@H](CC(C)C)NC(=O)[C@H](Cc1ccc(O)cc1)NC(=O)[C@H](CCCCN)NC(=O)[C@H](CCCCN)NC(=O)[C@@H](NC(=O)[C@H](C)NC(=O)[C@H](CCSC)NC(=O)[C@H](CCC(N)=O)NC(=O)[C@H](CCCCN)NC(=O)[C@H](CCCN=C(N)N)NC(=O)[C@H](CC(C)C)NC(=O)[C@H](CCCN=C(N)N)NC(=O)[C@@H](NC(=O)[C@H](Cc1ccc(O)cc1)NC(=O)[C@@H](CC(N)=O)NC(=O)[C@H](CC(=O)O)NC(=O)[C@@H](NC(=O)[C@H](Cc1ccccc1)NC(=O)[C@@H](NC(=O)[C@H](C)NC(=O)[C@H](CC(=O)O)NC(=O)[C@H](CO)NC(=O)[C@@H](N)Cc1cnc[nH]1)C(C)C)[C@@H](C)O)[C@@H](C)O)C(C)C)C(=O)N[C@@H](CC(C)C)C(=O)N[C@@H](CC(N)=O)C(N)=O [VIP [D-Asn9]],–,2.8 nM
CC[C@H](C)[C@H](NC(=O)[C@H](CO)NC(=O)[C@H](CC(N)=O)NC(=O)[C@H](CC(C)C)NC(=O)[C@H](Cc1ccc(O)cc1)NC(=O)[C@H](CCCCN)NC(=O)[C@H](CCCCN)NC(=O)[C@@H](NC(=O)[C@H](C)NC(=O)[C@H](CCSC)NC(=O)[C@H](CCC(N)=O)NC(=O)[C@H](CCCCN)NC(=O)[C@H](CCCN=C(N)N)NC(=O)[C@H](CC(C)C)NC(=O)[C@H](CCCN=C(N)N)NC(=O)[C@@H](NC(=O)[C@H](Cc1ccc(O)cc1)NC(=O)[C@H](CC(N)=O)NC(=O)[C@@H](CC(=O)O)NC(=O)[C@@H](NC(=O)[C@H](Cc1ccccc1)NC(=O)[C@@H](NC(=O)[C@H](C)NC(=O)[C@H](CC(=O)O)NC(=O)[C@H](CO)NC(=O)[C@@H](N)Cc1cnc[nH]1)C(C)C)[C@@H](C)O)[C@@H](C)O)C(C)C)C(=O)N[C@@H](CC(C)C)C(=O)N[C@@H](CC(N)=O)C(N)=O [VIP [D-Asp8]],110 nM and 138 nM and 178 nM,275 nM
H-HSDAVFTDNYTRLRKQMAVKKYLASILN-NH2 [VIP Ala24],–,8.9 nM
H-HSDAAFTDNYTRLRKQMAVKKYLNSILN-NH2 [VIP Ala5],–,34.7 nM
H-HSDAVFTDNYTRLRAQMAVKKYLNSILN-NH2 [VIP Ala15],2.1 nM and 16.2 nM and 15.9 nM,1.9 nM
CC[C@H](C)[C@H](NC(=O)[C@H](CO)NC(=O)[C@H](CC(N)=O)NC(=O)[C@H](CC(C)C)NC(=O)[C@H](Cc1ccc(O)cc1)NC(=O)[C@H](CCCCN)NC(=O)[C@H](CCCCN)NC(=O)[C@@H](NC(=O)[C@H](C)NC(=O)[C@@H](CCSC)NC(=O)[C@H](CCC(N)=O)NC(=O)[C@H](CCCCN)NC(=O)[C@H](CCCN=C(N)N)NC(=O)[C@H](CC(C)C)NC(=O)[C@H](CCCN=C(N)N)NC(=O)C(NC(=O)[C@H](Cc1ccc(O)cc1)NC(=O)[C@H](CC(N)=O)NC(=O)[C@H](CC(=O)O)NC(=O)[C@@H](NC(=O)[C@H](Cc1ccccc1)NC(=O)[C@@H](NC(=O)[C@H](C)NC(=O)[C@H](CC(=O)O)NC(=O)[C@H](CO)NC(=O)[C@@H](N)Cc1cnc[nH]1)C(C)C)[C@@H](C)O)[C@@H](C)O)C(C)C)C(=O)N[C@@H](CC(C)C)C(=O)N[C@@H](CC(N)=O)C(N)=O (stereo partly drawn) [VIP [D- Met 17]],–,33.1 nM
CC[C@H](C)[C@H](NC(=O)[C@H](CO)NC(=O)[C@H](CC(N)=O)NC(=O)[C@H](CC(C)C)NC(=O)[C@H](Cc1ccc(O)cc1)NC(=O)[C@H](CCCCN)NC(=O)[C@H](CCCCN)NC(=O)[C@@H](NC(=O)[C@H](C)NC(=O)[C@H](CCSC)NC(=O)[C@H](CCC(N)=O)NC(=O)[C@H](CCCCN)NC(=O)[C@H](CCCN=C(N)N)NC(=O)[C@H](CC(C)C)NC(=O)[C@H](CCCN=C(N)N)NC(=O)[C@H](NC(=O)[C@H](Cc1ccc(O)cc1)NC(=O)[C@H](CC(N)=O)NC(=O)[C@H](CC(=O)O)NC(=O)[C@@H](NC(=O)[C@H](Cc1ccccc1)NC(=O)[C@@H](NC(=O)[C@H](C)NC(=O)[C@H](CC(=O)O)NC(=O)[C@H](CO)NC(=O)[C@@H](N)Cc1cnc[nH]1)C(C)C)[C@@H](C)O)[C@H](C)O)C(C)C)C(=O)N[C@@H](CC(C)C)C(=O)N[C@@H](CC(N)=O)C(N)=O [VIP [D-Thr11]],54.9 nM and 91.2 nM and 110 nM,54.9 nM
H-ASDAVFTDNYTRLRKQMAVKKYLNSILN-NH2 [VIP Ala1],16.9 nM and 89.1 nM and 64.5 nM,95.4 nM
H-HSDAVFTDNYTRLRKQMAVKKYLNSILA-NH2 [VIP Ala28],0.54 nM and 2.7 nM and 2.8 nM,4.3 nM
CC[C@H](C)[C@H](NC(=O)[C@H](CO)NC(=O)[C@@H](CC(N)=O)NC(=O)[C@H](CC(C)C)NC(=O)[C@H](Cc1ccc(O)cc1)NC(=O)[C@H](CCCCN)NC(=O)[C@H](CCCCN)NC(=O)[C@@H](NC(=O)[C@H](C)NC(=O)[C@H](CCSC)NC(=O)[C@H](CCC(N)=O)NC(=O)[C@H](CCCCN)NC(=O)[C@H](CCCN=C(N)N)NC(=O)[C@H](CC(C)C)NC(=O)[C@H](CCCN=C(N)N)NC(=O)[C@@H](NC(=O)[C@H](Cc1ccc(O)cc1)NC(=O)[C@H](CC(N)=O)NC(=O)[C@H](CC(=O)O)NC(=O)[C@@H](NC(=O)[C@H](Cc1ccccc1)NC(=O)[C@@H](NC(=O)[C@H](C)NC(=O)[C@H](CC(=O)O)NC(=O)[C@H](CO)NC(=O)[C@@H](N)Cc1cnc[nH]1)C(C)C)[C@@H](C)O)[C@@H](C)O)C(C)C)C(=O)N[C@@H](CC(C)C)C(=O)N[C@@H](CC(N)=O)C(N)=O [VIP [D-Asn24]],2.6 nM and 11.8 nM and 12.6 nM,60.3 nM
H-HSDAVFTDNYTRLRKQMAVKKYLNSALN-NH2 [VIP Ala26],–,4.3 nM and 12.3 nM
CC[C@H](C)[C@H](NC(=O)[C@H](CO)NC(=O)[C@H](CC(N)=O)NC(=O)[C@H](CC(C)C)NC(=O)[C@H](Cc1ccc(O)cc1)NC(=O)[C@H](CCCCN)NC(=O)[C@H](CCCCN)NC(=O)[C@@H](NC(=O)[C@H](C)NC(=O)[C@@H](CCSC)NC(=O)[C@H](CCC(N)=O)NC(=O)[C@H](CCCCN)NC(=O)[C@H](CCCN=C(N)N)NC(=O)[C@H](CC(C)C)NC(=O)[C@H](CCCN=C(N)N)NC(=O)C(NC(=O)[C@H](Cc1ccc(O)cc1)NC(=O)[C@H](CC(N)=O)NC(=O)[C@H](CC(=O)O)NC(=O)C(NC(=O)[C@H](Cc1ccccc1)NC(=O)[C@@H](NC(=O)[C@H](C)NC(=O)[C@H](CC(=O)O)NC(=O)[C@H](CO)NC(=O)[C@@H](N)Cc1cnc[nH]1)C(C)C)[C@@H](C)O)[C@@H](C)O)C(C)C)C(=O)N[C@@H](CC(C)C)C(=O)N[C@@H](CC(N)=O)C(N)=O (stereo partly drawn) [VIP [D-Met17]],6.7 nM and 29.5 nM and 36.3 nM,–
CC[C@H](C)[C@H](NC(=O)[C@@H](CO)NC(=O)[C@H](CC(N)=O)NC(=O)[C@H](CC(C)C)NC(=O)[C@H](Cc1ccc(O)cc1)NC(=O)[C@H](CCCCN)NC(=O)[C@H](CCCCN)NC(=O)[C@@H](NC(=O)[C@H](C)NC(=O)[C@H](CCSC)NC(=O)[C@H](CCC(N)=O)NC(=O)[C@H](CCCCN)NC(=O)[C@H](CCCN=C(N)N)NC(=O)[C@H](CC(C)C)NC(=O)[C@H](CCCN=C(N)N)NC(=O)[C@@H](NC(=O)[C@H](Cc1ccc(O)cc1)NC(=O)[C@H](CC(N)=O)NC(=O)[C@H](CC(=O)O)NC(=O)[C@@H](NC(=O)[C@H](Cc1ccccc1)NC(=O)[C@@H](NC(=O)[C@H](C)NC(=O)[C@H](CC(=O)O)NC(=O)[C@H](CO)NC(=O)[C@@H](N)Cc1cnc[nH]1)C(C)C)[C@@H](C)O)[C@@H](C)O)C(C)C)C(=O)N[C@@H](CC(C)C)C(=O)N[C@@H](CC(N)=O)C(N)=O [VIP [D-Ser25]],–,43.6 nM
CC[C@H](C)[C@H](NC(=O)[C@H](CO)NC(=O)[C@H](CC(N)=O)NC(=O)[C@H](CC(C)C)NC(=O)[C@H](Cc1ccc(O)cc1)NC(=O)[C@H](CCCCN)NC(=O)[C@H](CCCCN)NC(=O)[C@@H](NC(=O)[C@H](C)NC(=O)[C@H](CCSC)NC(=O)[C@H](CCC(N)=O)NC(=O)[C@H](CCCCN)NC(=O)[C@H](CCCN=C(N)N)NC(=O)[C@H](CC(C)C)NC(=O)[C@H](CCCN=C(N)N)NC(=O)[C@@H](NC(=O)[C@H](Cc1ccc(O)cc1)NC(=O)[C@H](CC(N)=O)NC(=O)[C@H](CC(=O)O)NC(=O)[C@@H](NC(=O)[C@H](Cc1ccccc1)NC(=O)[C@@H](NC(=O)[C@H](C)NC(=O)[C@H](CC(=O)O)NC(=O)[C@H](CO)NC(=O)[C@@H](N)Cc1cnc[nH]1)C(C)C)[C@@H](C)O)[C@@H](C)O)C(C)C)C(=O)N[C@H](CC(C)C)C(=O)N[C@@H](CC(N)=O)C(N)=O [VIP [D-Leu27]],–,5 nM
